US20100314318A1, “HALOGENATED AMIDE BIOCIDAL COMPOUNDS AND METHODS FOR TREATING WATER SYSTEMS AT NEAR NEUTRAL TO HIGH PH” (priority 2009, published 2010)

How the values were obtained:
[1] = system: Pseudomonas aeruginosa ATCC 10145; test: Bactericidal efficacy in synthetic salts water pH 8.5; type: cell-based; details: 37° C.
Procedure: A sterile synthetic salts water is prepared and inoculated with Pseudomonas aeruginosa ATCC 10145 at about 10^7 CFU/mL. The synthetic water is prepared to contain (in 1 liter deionized water) the following: CaCl2, 0.2203 g; MgSO4, 0.1847 g; and NaHCO3, 0.2033 g. The final pH of the synthetic cooling water is adjusted to 8.5. Aliquots of the cell suspension are then treated with biocides at selected dosage levels. The same contaminated water sample without biocide is used as control. After incubating at 37° C. for different time intervals, numbers of surviving bacteria are enumerated using a serial dilution method. After incubating for 24 hr, all cell suspensions are reinoculated with Pseudomonas aeruginosa ATCC 10145 at 10^6 CFU/mL. The efficacy results for […]

[2] = system: bacteria in Cooling Tower water; test: Efficacy in cooling tower water sample (about pH 8.3), serial dilution count; type: cell-based
[3] = Stability against hydrolysis in buffered dilute solutions, HPLC
[4] = system: bacteria isolated from Cooling Tower water; test: Efficacy in sterile artificial Cooling Tower water (approx. pH 8.5); type: cell-based; details: 30° C.
bacterial consortium = test: Preservation of calcium carbonate slurry Hydrocarb 90 (pH 8.7); details: 24-hr contact
[5] = going from pH 6 to pH 8.9; cited from earlier work
[6] = system: bacteria isolated from field; test: Efficacy in semi-synthetic metal working fluid; type: cell-based; details: room temperature, MWF

With `N#CC(Br)(Br)C(N)=O` [DBNPA, 2,2-Dibromo-3-nitrilopropionamide] the “Dosage required for 3 log10 bacterial reduction (ppm, active)” value ([1]; 1 hr, pH 8.5) was 2.9 ppm, the “Dosage required for 3 log10 bacterial reduction (ppm, active)” value ([1]; 3 hr, pH 8.5) was 2.9 ppm and the “Dosage required for 3 log10 bacterial reduction (ppm, active)” value ([1]; 24 hr, pH 8.5) was 4.4 ppm. The “Dosage required for 3 log10 bacterial reduction (ppm, active)” value ([1]; 48 hr, pH 8.5, reinoculated after 24 hr) was 50.0 ppm, the “Bacterial log10 reduction after biocide addition” value (shortened to “Bacterial log10 reduction”) ([2]; 12.5 ppm active, 1 hr) was 5.3 log10 and the “Bacterial log10 reduction” value ([2]; 12.5 ppm active, 48 hrs, re-inoculated) was 1.5 log10. For the same molecule, the “Bacterial log10 reduction” value ([2]; 12.5 ppm active, 72 hrs, re-inoculated) was 0.7 log10, the “Bacterial log10 reduction” value ([2]; 12.5 ppm active, 96 hrs, re-inoculated) was 0.3 log10 and the “Bacterial log10 reduction” value ([2]; 25 ppm active, 1 hr) was 5.2 log10. The “Bacterial log10 reduction” value ([2]; 25 ppm active, 3 hr) was “>=5.7 log10”, the “Bacterial log10 reduction” value ([2]; 25 ppm active, 24 hrs) was “>=6.3 log10” and the “Bacterial log10 reduction” value ([2]; 25 ppm active, 48 hrs, re-inoculated) was 4.2 log10. The “Bacterial log10 reduction” value ([2]; 25 ppm active, 72 hrs, re-inoculated) was 1.0 log10, the “Bacterial log10 reduction” value ([2]; 25 ppm active, 96 hrs, re-inoculated) was 0.7 log10 and the “Bacterial log10 reduction” value ([2]; 50 ppm active, 1 hr) was “>=5.3 log10”. For the same molecule, the “Bacterial log10 reduction” value ([2]; 50 ppm active, 3 hr) was “>=5.7 log10”, the “Bacterial log10 reduction” value ([2]; 50 ppm active, 24 hrs) was “>=6.3 log10” and the “Bacterial log10 reduction” value ([2]; 50 ppm active, 48 hrs, re-inoculated) was 6.1 log10. The “Bacterial log10 reduction” value ([2]; 50 ppm active, 72 hrs, re-inoculated) was 1.0 log10, the “Bacterial log10 reduction” value ([2]; 50 ppm active, 96 hrs, re-inoculated) was 0.8 log10 and the “level of DBMAL or DBNPA remaining (HPLC)” value ([3]; pH 6.9, T = 30 C., 0 hours) was 3991. The “level of DBMAL or DBNPA remaining (HPLC)” value ([3]; pH 6.9, T = 30 C., 2 hours) was 4155, the “level of DBMAL or DBNPA remaining (HPLC)” value ([3]; pH 6.9, T = 30 C., 24 hours) was 2557 and the “level of DBMAL or DBNPA remaining (HPLC)” value ([3]; pH 6.9, T = 30 C., 48 hours) was 1361. For the same molecule, the “level of DBMAL or DBNPA remaining (HPLC)” value ([3]; pH 6.9, T = 30 C., 72 hours) was 918, the “level of DBMAL or DBNPA remaining (HPLC)” value ([3]; pH 6.9, T = 30 C., 96 hours) was 658 and the “level of DBMAL or DBNPA remaining (HPLC)” value ([3]; pH 8, T = −1 C., 0 hours) was 4068. The “level of DBMAL or DBNPA remaining (HPLC)” value ([3]; pH 8, T = −1 C., 2 hours) was 3998, the “level of DBMAL or DBNPA remaining (HPLC)” value ([3]; pH 8, T = −1 C., 24 hours) was 3506 and the “level of DBMAL or DBNPA remaining (HPLC)” value ([3]; pH 8, T = −1 C., 48 hours) was 3578. For the same molecule, the “level of DBMAL or DBNPA remaining (HPLC)” value ([3]; pH 8, T = −1 C., 72 hours) was 3149, the “level of DBMAL or DBNPA remaining (HPLC)” value ([3]; pH 8, T = −1 C., 96 hours) was 3070 and the “level of DBMAL or DBNPA remaining (HPLC)” value ([3]; pH 9, T = −1 C., 0 hours) was 3842. For the same molecule, the “level of DBMAL or DBNPA remaining (HPLC)” value ([3]; pH 9, T = −1 C., 2 hours) was 2818, the “level of DBMAL or DBNPA remaining (HPLC)” value ([3]; pH 9, T = −1 C., 24 hours) was 1256 and the “level of DBMAL or DBNPA remaining (HPLC)” value ([3]; pH 9, T = −1 C., 48 hours) was 659. For the same molecule, the “level of DBMAL or DBNPA remaining (HPLC)” value ([3]; pH 9, T = −1 C., 72 hours) was 363, the “level of DBMAL or DBNPA remaining (HPLC)” value ([3]; pH 9, T = −1 C., 96 hours) was 239 and the “Minimum biocide dosage (ppm, active) needed for at least 3 log10 bacterial reduction” value ([4]; 1 h) was 8.0 ppm. The “Minimum biocide dosage (ppm, active) needed for at least 3 log10 bacterial reduction” value ([4]; 3 h) was 8.0 ppm, the “Minimum biocide dosage (ppm, active) needed for at least 3 log10 bacterial reduction” value ([4]; 24 h) was 11.0 ppm and the “Minimum biocide dosage (ppm, active) needed for at least 3 log10 bacterial reduction” value ([4]; 48 h, reinoculated) was 15.0 ppm. For the same molecule, the “Minimum biocide dosage (ppm, active) needed for at least 3 log10 bacterial reduction” value ([4]; 72 h, reinoculated) was 15.0 ppm, the “Minimum biocide dosage (ppm, active) needed for at least 3 log10 bacterial reduction” value ([4]; 96 h, reinoculated) was 21.0 ppm and the “change in populations of bacteria (FIG. 6)” value (bacterial consortium; 5 ppm) was “decrease relatively little”. The “decrease in numbers of bacteria (FIG. 6)” value (bacterial consortium; 10 ppm) was “approximately 0.5 orders of magnitude”, the “factor by which rate of disappearance increases” value [5] was “about 450” and the “Minimum dosage (ppm, active) required for at least 3 log10 reduction in bacterial counts” value ([6]; 2 h) was 42 ppm. The “Minimum dosage (ppm, active) required for at least 3 log10 reduction in bacterial counts” value ([6]; 4 h) was 32 ppm, the “Minimum dosage (ppm, active) required for at least 3 log10 reduction in bacterial counts” value ([6]; 24 h) was 42 ppm and the “Minimum dosage (ppm, active) required for at least 3 log10 reduction in bacterial counts” value ([6]; 48 h) was 55 ppm. For the same molecule, the “Minimum dosage (ppm, active) required for at least 3 log10 reduction in bacterial counts” value ([6]; 72 h) was 55 ppm and the “Minimum dosage (ppm, active) required for at least 3 log10 reduction in bacterial counts” value ([6]; 96 h) was 55 ppm.
